The values below come from US10301332B2, “Method of selectively releasing nitric oxide depending on change in pH using calcium phosphate” (INSTITUTE FOR BASIC SCIENCE, priority 2015, dated 2019).

The series is described as follows: Release of nitric oxide depending on pH (Sievers NOA nitric oxide detector). In kind it is physicochemical. As to conditions: 1 mg in 40 ml DPBS, pH 7.4 (FIG. 8). As for the experimental part:
FIGS. 8 to 10 illustrate results obtained using a nitric oxide detector (Sievers NOA, GE analytical instruments, USA) in order to confirm a nitric oxide release behavior of the synthesized CaP—NO depending on the change in pH. FIG. 8 illustrates a result of observing the nitric oxide release behavior after adding 1 mg of AEATS to 40 ml of Dulbecco's Phosphate-Buffered Saline (DPBS, pH 7.4). […] FIG. 9 illustrates a result of confirming a nitric oxide release behavior of CaP—NO depending on a change in pH. […] When the pH was increased to 7.4 again, nitric oxide was not released, and as a result of observing the nitric oxide release behavior while repeatedly changing the pH, it was confirmed that when the pH was 5, nitric oxide was released.

For `CO[Si](CCCNCCN)(OC)OC` [AEATS, N-(2-aminoethyl)-3-aminopropyl trimethoxysilane], the “nitric oxide release behavior” value was “a large amount of nitric oxide was released”.
